Reference: ChEMBL document CHEMBL1781956, “Design, synthesis and insulin-sensitizing activity of indomethacin and diclofenac derivatives” (Bioorg Med Chem Lett, 2009)
Activity calls are given as the source filed them. The rule behind the calls is not given here.

Key:
Assay type in all cases: functional
3T3-L1 [1] = experiment: Insulin sensitizing activity in mouse 3T3L1 cells assessed as triglyceride accumulation at 1 uM by insulin-regulated cell differentiation assay relative to rosiglitazone
[2] = target: T1, Peroxisome proliferator-activated receptor gamma (Homo sapiens) (UniProt P37231); experiment: Agonist activity at human PPARgamma in human U2OS cells by cell based transactivation assay relative to rosiglitazone
T1 sequence (whole entry): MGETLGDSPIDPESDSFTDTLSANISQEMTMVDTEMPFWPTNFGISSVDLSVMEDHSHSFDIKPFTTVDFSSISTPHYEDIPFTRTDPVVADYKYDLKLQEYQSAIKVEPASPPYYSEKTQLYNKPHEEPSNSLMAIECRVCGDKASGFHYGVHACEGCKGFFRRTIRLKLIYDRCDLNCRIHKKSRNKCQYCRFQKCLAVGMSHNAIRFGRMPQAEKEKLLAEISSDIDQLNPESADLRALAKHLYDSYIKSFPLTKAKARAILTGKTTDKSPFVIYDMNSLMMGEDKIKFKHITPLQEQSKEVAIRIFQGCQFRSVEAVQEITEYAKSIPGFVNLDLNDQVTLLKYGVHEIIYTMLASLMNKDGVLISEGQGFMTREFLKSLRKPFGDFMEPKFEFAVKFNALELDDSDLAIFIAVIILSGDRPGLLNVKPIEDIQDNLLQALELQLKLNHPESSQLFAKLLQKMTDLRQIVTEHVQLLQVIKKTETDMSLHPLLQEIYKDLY

[3] = target: T2, Peroxisome proliferator-activated receptor gamma (Homo sapiens, UniProt P37231); experiment: Agonist activity at human PPARgamma in human U2OS cells by cell based transactivation assay
T2 sequence (P37231 whole entry): T1 sequence (whole entry)

3T3-L1 [4] = experiment: Insulin sensitizing activity in mouse 3T3L1 cells assessed as triglyceride accumulation by insulin-regulated cell differentiation assay

Compound	Activity (3T3-L1 [1]) [%]	Emax [2]	EC50 ([3]; u2os)	EC30 (3T3-L1 [4])	EC50 [3] [nM]
Cc1oc(-c2ccc(Cl)cc2)nc1CCOc1ccc2c(c1)c(CC(=O)O)c(C)n2C(=O)c1ccc(Cl)cc1	38	–	–	–	–
Cc1c(CC(=O)O)c2cc(OCc3ccccc3)ccc2n1C(=O)c1ccc(Cl)cc1	126	inactive	Not Active	9.51 ×10⁻⁹ M	–
COC(=O)Cc1c(C)n(C(=O)c2ccc(Cl)cc2)c2ccc(OCCN3COc4ccccc4C3=O)cc12	47	–	–	–	–
COC(=O)Cc1c(C)n(C(=O)c2ccc(Cl)cc2)c2ccc(OCCc3nc(-c4ccc(Cl)cc4)oc3C)cc12	57	–	–	2 ×10⁻⁶ M	–
COc1cccc(-c2nc(CCOc3ccc4c(c3)c(CC(=O)O)c(C)n4C(=O)c3ccc(Cl)cc3)c(C)o2)c1	76	–	–	3.75 ×10⁻⁷ M	–
COC(=O)Cc1c(C)n(C(=O)c2ccc(Cl)cc2)c2ccc(OCCc3nc(-c4ccccc4)oc3C)cc12	80	74%	–	2.75 ×10⁻⁷ M	620
COC(=O)Cc1c(C)n(C(=O)c2ccc(Cl)cc2)c2ccc(OCCc3nc(-c4cccc(OC)c4)oc3C)cc12	85	–	–	3.16 ×10⁻⁷ M	–
CCc1ccc(CCOc2ccc3c(c2)c(CC(=O)O)c(C)n3C(=O)c2ccc(Cl)cc2)nc1	42	–	–	5.89 ×10⁻⁶ M	–
COC(=O)Cc1c(C)n(C(=O)c2ccc(Cl)cc2)c2ccc(OCCN3CCCCC3)cc12	33	–	–	–	–
Cc1oc(-c2ccccc2)nc1CCOc1ccc2c(c1)c(CC(=O)O)c(C)n2C(=O)c1ccc(Cl)cc1	36	79%	–	6.17 ×10⁻⁶ M	–
COC(=O)Cc1c(C)n(C(=O)c2ccc(Cl)cc2)c2ccc(OCCN3CCOCC3)cc12	42	–	–	–	–
COC(=O)Cc1c(C)n(C(=O)c2ccc(Cl)cc2)c2ccc(OCCc3nc(-c4ccc(-c5ccccc5)cc4)oc3C)cc12	138	141%	–	1.23 ×10⁻⁸ M	20
CN(CCOc1ccc(CC2SC(=O)NC2=O)cc1)c1ccccn1 (centres undefined) [ROSIGLITAZONE]	100	–	–	1.05 ×10⁻⁷ M	–
Cc1c(CC(=O)O)c2cc(OCCN3CCOCC3)ccc2n1C(=O)c1ccc(Cl)cc1	36	–	–	–	–
COC(=O)Cc1c(C)n(C(=O)c2ccc(Cl)cc2)c2ccc(OCc3ccccc3)cc12	134	inactive	Not Active	6.56 ×10⁻⁹ M	–
O=C(O)Cc1ccc(OCc2ccccc2)cc1Nc1c(Cl)cccc1Cl	98	35%	–	2.51 ×10⁻⁷ M	–
Cc1oc(-c2ccc(-c3ccccc3)cc2)nc1CCOc1ccc2c(c1)c(CC(=O)O)c(C)n2C(=O)c1ccc(Cl)cc1	129	134%	–	3.31 ×10⁻⁸ M	40
Cc1c(CC(=O)O)c2cc(OCCN3CCCCC3)ccc2n1C(=O)c1ccc(Cl)cc1	30	–	–	–	–
CCc1ccc(CCOc2ccc3c(c2)c(CC(=O)OC)c(C)n3C(=O)c2ccc(Cl)cc2)nc1	50	–	–	1.7 ×10⁻⁶ M	–
COC(=O)Cc1c(C)n(C(=O)c2ccc(Cl)cc2)c2ccc(OCCC/C=C(\C)CC/C=C(\C)CCC=C(C)C)cc12	81	–	–	2.88 ×10⁻⁷ M	–
Cc1c(CC(=O)O)c2cc(OCCN3COc4ccccc4C3=O)ccc2n1C(=O)c1ccc(Cl)cc1	41	–	–	–	–
CC(C)=CCC/C(C)=C/CC/C(C)=C/CCCOc1ccc2c(c1)c(CC(=O)O)c(C)n2C(=O)c1ccc(Cl)cc1	74	–	–	6.92 ×10⁻⁷ M	–
